Test results: BindingDB's records for doi:10.1016/S0960-894X(01)81014-3 (1993)
Residues, ends and D or L forms follow the SMILES beside them. *: point of attachment. Adamantane1carbonyl = O=C(C12CC3CC(CC(C3)C1)C2)*

Assay: Compound was evaluated for binding affinity against Opioid receptor delta 1 binding assay: Inactive

Compound `CC[C@H](C)[C@H](NC(=O)[C@H](Cc1ccc(O)cc1)NC(=O)[C@@H]1CCCN1C(=O)[C@H](CCCCN)NC(=O)C12CC3CC(CC(C3)C1)C2)C(=O)N[C@@H](CC(C)C)C(=O)O` [(S)-2-{(2S,3S)-2-[(S)-2-[((S)-1-{(S)-2-[(Adamantane-1-carbonyl)-amino]-6-amino-hexanoyl}-pyrrolidine-2-carbonyl)-amino]-3-(4-hydroxy-phenyl)-propionylamino]-3-methyl-pentanoylamino}-4-methyl-pentanoic acid] (Adamantane1carbonyl-KPYIL-OH) has a Ki of over 100 µM.
